Experiments:
HL-60 [1] = experiment: Induction of human HL-60 cell adhesion after 48 hrs; assay type: functional
[2] = Displacement of [3H]PDBu from partially purified rabbit brain PKC; set-up: species or system Oryctolagus cuniculus
Oryctolagus cuniculus = organism: Oryctolagus cuniculus; experiment: Activation of rabbit brain PKC assessed as [32P] incorporation in histone 3-S from [gamma32P]ATP
HL-60 [3] = experiment: Induction of TNFalpha release from human HL-60 cells after 24 hrs by ELISA; assay type: functional
Mus musculus [4] = organism: Mus musculus; experiment: Carcinogenesis in CD1 mouse skin assessed as tumor incidence at 400 nmol twice a week for 20 weeks; assay type: functional
Mus musculus [5] = organism: Mus musculus; experiment: Carcinogenesis in CD1 mouse skin assessed as tumor incidence at 4 nmol twice a week for 20 weeks; assay type: functional

`C=C(/C=C/C=C(/CO)[C@@H]1CC[C@]2([C@H](CCCO)/C(=C(/C)C=O)CC[C@]2(C)O)[C@H]1O)CCC=C(C)C` gave an Activity (HL-60 [1]) of 500 nM, an IC50 [2] of 200 nM and an ED50 (Oryctolagus cuniculus) of 300 nM. It also gave an ED100 (HL-60 [3]) of 3000 nM and an Activity (Mus musculus [4]) of 64.3%.
For `CCCCCCCCCCCCCC(=O)O[C@@H]1[C@@H](C)[C@@]2(O)[C@@H](C=C(CO)C[C@]3(O)C(=O)C(C)=C[C@@H]23)[C@@H]2C(C)(C)[C@]12OC(C)=O` [PHORBOL MYRISTATE ACETATE], the Activity (HL-60 [1]) was 3 nM, the IC50 [2] was 15 nM and the ED50 (Oryctolagus cuniculus) was 15 nM. It also gave an ED100 (HL-60 [3]) of 6 nM and an Activity (Mus musculus [5]) of 93.3%.

From ChEMBL document CHEMBL1158017, “28-deacetylbelamcandal, a tumor-promoting triterpenoid from Iris tectorum” (J Nat Prod, 1999)
